From article PMC3914206

Key:
Assay type in all cases: binding
[1] = target: T1, panel of 442 kinases (Homo sapiens, UniProt Q9H2G2); settings: kinase SLK; compound concentration 10 µM
T1 construct: purchased KINOMEscan
Source text: (§1) We assessed the selectivity of members of this scaffold using the KINOMEscan methodology across a near comprehensive panel of 442 kinases [[18,27]].

[2] = target: T2, panel of 442 kinases (Homo sapiens, UniProt P35968); settings: kinase VEGFR2; compound concentration 10 µM
T2 construct: purchased KINOMEscan
T2 sequence (P35968 20-1356): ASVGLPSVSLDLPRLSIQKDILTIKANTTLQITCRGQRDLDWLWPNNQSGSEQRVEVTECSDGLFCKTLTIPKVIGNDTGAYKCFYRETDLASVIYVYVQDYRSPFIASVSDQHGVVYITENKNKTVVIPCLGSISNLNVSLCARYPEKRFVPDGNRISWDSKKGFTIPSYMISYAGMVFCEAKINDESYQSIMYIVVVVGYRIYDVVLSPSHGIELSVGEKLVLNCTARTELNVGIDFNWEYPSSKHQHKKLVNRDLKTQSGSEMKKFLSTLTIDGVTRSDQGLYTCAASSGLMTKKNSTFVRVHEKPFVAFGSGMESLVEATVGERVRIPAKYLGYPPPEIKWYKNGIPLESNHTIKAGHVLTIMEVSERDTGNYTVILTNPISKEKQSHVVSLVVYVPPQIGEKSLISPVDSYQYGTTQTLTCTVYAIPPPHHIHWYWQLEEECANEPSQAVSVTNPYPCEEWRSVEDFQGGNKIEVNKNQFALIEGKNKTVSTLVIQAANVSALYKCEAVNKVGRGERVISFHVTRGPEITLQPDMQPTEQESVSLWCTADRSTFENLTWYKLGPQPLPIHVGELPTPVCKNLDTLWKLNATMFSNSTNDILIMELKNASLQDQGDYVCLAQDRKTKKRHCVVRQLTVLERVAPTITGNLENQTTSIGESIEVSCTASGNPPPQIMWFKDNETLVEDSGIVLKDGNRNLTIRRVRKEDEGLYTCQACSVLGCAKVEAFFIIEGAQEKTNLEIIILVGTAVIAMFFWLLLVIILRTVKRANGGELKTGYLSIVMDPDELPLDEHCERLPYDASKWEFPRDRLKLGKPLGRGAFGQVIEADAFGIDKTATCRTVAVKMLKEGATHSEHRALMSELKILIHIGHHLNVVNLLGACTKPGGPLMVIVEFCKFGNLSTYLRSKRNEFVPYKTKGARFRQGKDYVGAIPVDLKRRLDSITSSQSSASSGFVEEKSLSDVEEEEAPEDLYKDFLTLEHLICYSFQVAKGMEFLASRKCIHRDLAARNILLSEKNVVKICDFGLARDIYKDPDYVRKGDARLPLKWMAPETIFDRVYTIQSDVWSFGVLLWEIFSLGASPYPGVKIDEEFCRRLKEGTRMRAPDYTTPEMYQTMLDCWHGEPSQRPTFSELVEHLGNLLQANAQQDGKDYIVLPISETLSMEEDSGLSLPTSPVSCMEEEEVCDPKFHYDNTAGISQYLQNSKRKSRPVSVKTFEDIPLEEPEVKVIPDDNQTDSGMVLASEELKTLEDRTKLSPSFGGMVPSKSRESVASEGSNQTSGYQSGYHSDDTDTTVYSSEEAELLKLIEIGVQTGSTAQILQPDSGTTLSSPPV
Source text: as §1

[3] = target: T3, panel of 442 kinases (Homo sapiens, UniProt P04626); settings: Compound Concentration 10 µM
T3 construct: purchased KINOMEscan
T3 sequence (P04626 23-1255): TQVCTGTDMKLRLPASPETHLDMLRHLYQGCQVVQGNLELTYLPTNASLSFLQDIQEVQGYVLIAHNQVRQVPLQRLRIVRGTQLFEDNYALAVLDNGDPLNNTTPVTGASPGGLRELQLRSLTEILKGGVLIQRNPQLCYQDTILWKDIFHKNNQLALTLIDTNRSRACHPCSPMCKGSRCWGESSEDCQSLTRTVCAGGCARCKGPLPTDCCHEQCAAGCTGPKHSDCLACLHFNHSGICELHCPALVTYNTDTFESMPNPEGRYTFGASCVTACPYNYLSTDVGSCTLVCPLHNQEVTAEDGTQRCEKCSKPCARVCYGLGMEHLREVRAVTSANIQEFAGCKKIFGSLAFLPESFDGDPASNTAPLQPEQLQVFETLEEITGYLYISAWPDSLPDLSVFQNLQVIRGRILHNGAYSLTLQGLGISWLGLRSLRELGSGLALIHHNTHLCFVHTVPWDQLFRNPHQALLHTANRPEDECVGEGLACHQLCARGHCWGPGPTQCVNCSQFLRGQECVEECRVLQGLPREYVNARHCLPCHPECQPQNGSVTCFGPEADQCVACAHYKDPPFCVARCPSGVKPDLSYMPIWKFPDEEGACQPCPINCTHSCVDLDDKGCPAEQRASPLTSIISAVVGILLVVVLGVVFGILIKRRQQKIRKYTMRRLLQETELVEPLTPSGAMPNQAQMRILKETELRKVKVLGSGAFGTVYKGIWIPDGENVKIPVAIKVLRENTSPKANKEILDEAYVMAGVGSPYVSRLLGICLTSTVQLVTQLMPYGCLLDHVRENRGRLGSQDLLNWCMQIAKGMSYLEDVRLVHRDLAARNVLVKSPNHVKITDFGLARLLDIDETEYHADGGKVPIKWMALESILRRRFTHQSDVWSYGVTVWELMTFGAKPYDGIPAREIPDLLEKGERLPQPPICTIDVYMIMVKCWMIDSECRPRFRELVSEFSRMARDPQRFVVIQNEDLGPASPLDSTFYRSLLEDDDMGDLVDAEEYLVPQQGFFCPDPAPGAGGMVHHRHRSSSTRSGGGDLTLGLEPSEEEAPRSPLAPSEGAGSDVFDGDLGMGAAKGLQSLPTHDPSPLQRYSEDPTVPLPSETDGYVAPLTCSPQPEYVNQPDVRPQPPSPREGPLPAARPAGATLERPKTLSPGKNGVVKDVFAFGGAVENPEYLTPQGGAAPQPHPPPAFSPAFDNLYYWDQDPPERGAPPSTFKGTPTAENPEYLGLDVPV
Source text: as §1

T1 sequence (Q9H2G2 whole entry): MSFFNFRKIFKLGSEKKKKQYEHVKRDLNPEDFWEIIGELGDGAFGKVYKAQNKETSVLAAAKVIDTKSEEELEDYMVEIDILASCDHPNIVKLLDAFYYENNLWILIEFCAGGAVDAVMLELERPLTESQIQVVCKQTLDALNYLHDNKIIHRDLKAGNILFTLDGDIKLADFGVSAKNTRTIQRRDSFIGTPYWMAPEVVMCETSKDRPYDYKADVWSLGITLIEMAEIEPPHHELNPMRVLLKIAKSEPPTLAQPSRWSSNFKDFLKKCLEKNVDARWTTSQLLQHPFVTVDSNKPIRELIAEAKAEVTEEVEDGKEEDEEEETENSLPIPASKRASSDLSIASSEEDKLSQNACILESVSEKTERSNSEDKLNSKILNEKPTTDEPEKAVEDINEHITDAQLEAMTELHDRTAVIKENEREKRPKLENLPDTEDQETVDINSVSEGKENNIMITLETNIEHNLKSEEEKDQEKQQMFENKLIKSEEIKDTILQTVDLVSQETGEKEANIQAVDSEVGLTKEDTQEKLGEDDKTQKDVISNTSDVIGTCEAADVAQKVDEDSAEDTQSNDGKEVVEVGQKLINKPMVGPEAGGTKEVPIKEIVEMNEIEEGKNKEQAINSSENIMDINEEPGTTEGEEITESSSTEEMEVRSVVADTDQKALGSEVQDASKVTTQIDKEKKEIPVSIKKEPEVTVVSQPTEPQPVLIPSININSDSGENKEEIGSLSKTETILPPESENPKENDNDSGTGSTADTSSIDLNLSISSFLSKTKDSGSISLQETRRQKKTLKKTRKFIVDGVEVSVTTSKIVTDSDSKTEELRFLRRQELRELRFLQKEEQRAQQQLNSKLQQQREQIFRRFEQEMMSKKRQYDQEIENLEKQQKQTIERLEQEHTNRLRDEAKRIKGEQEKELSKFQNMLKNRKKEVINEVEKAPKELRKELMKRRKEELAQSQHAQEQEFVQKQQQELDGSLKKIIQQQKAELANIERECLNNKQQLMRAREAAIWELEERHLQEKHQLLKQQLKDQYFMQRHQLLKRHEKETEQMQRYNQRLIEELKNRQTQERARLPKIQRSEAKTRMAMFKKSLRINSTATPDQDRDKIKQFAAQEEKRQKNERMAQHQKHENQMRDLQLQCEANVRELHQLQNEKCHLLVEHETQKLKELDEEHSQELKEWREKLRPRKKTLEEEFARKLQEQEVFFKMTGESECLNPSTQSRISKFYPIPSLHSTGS

SMILES | % Ctrl, SLK [1] [% Ctrl] | % Ctrl, VEGFR2 [2] [% Ctrl] | KINOMEscan: ERBB2 [3]
COc1cc(C(=O)N2CCC(N3CCN(C)CC3)CC2)ccc1Nc1ncc2c(n1)N1CCc3cccc(c31)C(=O)N2C [Compound 24] | 49 | 100 | –
CCOc1cc(C(=O)N2CCC(N3CCN(C)CC3)CC2)ccc1Nc1ncc2c(n1)N(C1CCCC1)c1ccccc1C(=O)N2C [Compound 26] | 100 | 100 | 100
COc1cc(C(=O)N2CCC(N3CCN(C)CC3)CC2)ccc1Nc1ncc2c(n1)N(C1CCCC1)c1ccccc1C(=O)N2C [Compound 25, 11-cyclopentyl-2-((2-methoxy-4-(4-(4-methylpiperazin-1-yl)piperidine-1-carbonyl)phenyl)amino)-5-methyl-5H-benzo[e]pyrimido[5,4-b][1,4]diazepin-6(11H)-one] | 100 | 100 | 100
COc1cc(C(=O)N2CCC(N3CCN(C)CC3)CC2)ccc1Nc1ncc2c(n1)N(C)c1ccccc1C(=O)N2C [15 (LRRK2-IN-1)] | 100 | 84 | 100
